The subject of experiment [1] is T47D human breast cancer cells. Description: Alkaline phosphatase assay in human breast cancer cell line T47D. Type of experiment: cell-based. The note with it: 24 h, read-out: T47D IC50 (nM). On the procedure: Alkaline Phosphatase Assay in Human Breast Cancer Cell Line T47D
T47D human breast cancer cells were grown in RPMI medium without phenol red (Invitrogen) containing 10% (v/v) heat-inactivated fetal bovine serum (FBS; Hyclone), 1% (v/v) penicillin-streptomycin (Invitrogen), 1% (w/v) glutamine (Invitrogen), and […] insulin (Sigma). Incubation conditions were 37° C. in a humidified 5% (v/v) carbon dioxide environment.
The cells were plated in 96-well tissue culture plates at 10,000 cells per well in assay medium [RPMI medium without phenol red (Invitrogen) containing 5% (v/v) charcoal-treated FBS (Hyclone) and 1% (v/v) penicillin-streptomycin (Invitrogen)]. Two days later, the medium was decanted and test compound or control were added at a final concentration of 0.1% (v/v) dimethyl sulfoxide in fresh assay medium. Twenty-four hours later, an alkaline phosphatase assay was performed using a SEAP kit (BD Biosciences Clontech, Palo Alto, Calif.). Briefly, the medium was decanted and the cells were fixed for 30 minutes at room temperature with 5% (v/v) formalin (Sigma). The cells were washed once with room temperature Hank's buffered saline solution (Invitrogen). Equal volumes (0.05 mL) of 1× Dilution Buffer, Assay Buffer and 1:20 substrate/enhancer mixture were then added. After 1 hour incubation at room temperature in the dark, the lysate was transferred to a white 96-well plate (Dynex) and luminescence was read using a LuminoSkan Ascent (Thermo Electron, Woburn, Mass.).

Experiment [2] deals with A549 Human lung carcinoma cells. The experiment is described as follows: Transient transfection and Steady Glo luciferase assay in A549 cells with dexamethasone challenge. Type of experiment: cell-based. As to conditions: transfected A549 cells, challenged with dexamethasone (glucocorticoid agonist), 24 h. On the procedure:
Transient Transfection and Steady Glo Luciferase Assay
A549 Human lung carcinoma cells were grown in F-12K Nutrient Mixture containing 10% (v/v) fetal bovine serum (FBS; Invitrogen), 2 mM glutamine and 0.15% sodium dicarbonate(Invitrogen).
A549 cells were split 1 to 3 in 175 cm tissue culture flask. The cells were incubated at 37° C. in CO2 incubator until the cells were 95% confluent (typically 24-30 hours).
The following solutions were prepared in sterile tubes: (a) Solution A: 1.5 μg/ml of DNA in 8.5 ml OPTI-MEM I Reduced Serum Medium. (GIBCO cat# 31985) and (b) Solution B: 6 μl/ml of DMRIE-C Reagent into […] OPTI-MEM I. The two solutions were combined and mixed gently, then incubated at room temperature for 40 minutes.
The A549 cells prepared above were washed with […] of OPTI-MEM I. The medium was removed and 17 ml of the lipid-DNA complex solution was overlayed onto cells. The cells ere then incubated for 16 h at 37° C. in CO2 incubator. The DNA-containing medium was removed and 30 ml of growth medium was added. (5% Charcoal treated FBS) After 5-6 h, the cells were seeded in a 96 well plate and the cells incubated overnight at 37° C. in CO2 incubator.
To each well was then added 5 μl of test compounds and the cells incubated at 37° C. for 10 min. […] A 150 μL sample from each well was then transferred into a DYNEX Microlitel plate and read on Top-counter.

pIC50: −log10 of the molar value.

In general, IC50 refers to the point on the concentration scale where inhibition reaches its midpoint. For the molecule `C=C1CCO[C@]12CC[C@H]1[C@@H]3CCC4=CC(=O)CCC4=C3[C@@H](c3ccc(P(C)(C)=O)cc3)C[C@@]12C` [Compound 4], the IC50 in experiment [1] was 3 nM.

The pIC50 is −log10 of the IC50, conventionally taken in molar units. Lower therefore signals a large IC50. For the molecule `C[C@]12C[C@H](c3ccc(P(=O)(Oc4ccccc4)Oc4ccccc4)cc3)C3=C4CCC(=O)C=C4CC[C@H]3[C@@H]1CCC2=O` [Compound 33], the IC50 in experiment [1] was greater than 1000 nM. Moreover, the pIC50 in experiment [2] was 6.66.

In the case of `C=C1CCO[C@]12CC[C@H]1[C@@H]3CCC4=CC(=O)CCC4=C3[C@@H](c3ccc(P(=O)(Oc4ccccc4)Oc4ccccc4)cc3)C[C@@]12C` [Compound 37], the IC50 in experiment [1] was 3.3 nM. Also, in experiment [2], the pIC50 was 7.46.
